Experimental data: US11690897B2, “Salt inducible kinase inhibitors for enhancing fertility” (The Board of Trustees of the University of Illinois, priority 2019, dated 2023)

Columns and labels:
rat granulosa cells = experiment: Cyp19a1 (aromatase) mRNA in primary rat granulosa cells, qPCR relative to Rpl19; assay type: cell-based; settings: for FSH-stimulation of aromatase (Cyp19a1 mRNA): FSH plus inhibitor vs FSH, 48 hours, rat granulosa cells (rat and mouse)
Procedure: Cyp19a1 mRNA levels were quantified 48 hours later and expressed as relative levels to ribosomal L19 protein (Rp119).
FIG. 5A, Expression of each SIK isoform in rat granulosa cells exposed to scrambled oligos (shSCR) or anti-SIK1 (shSIK1), SIK2 (shSIK2), or SIK3 (shSIK3) shRNAs. *p<0.05, **p<0.01, t-test, n=3. FIG. 5B, Cyp19a1, STARD1, and CYP11a1 relative mRNA expression levels after exposure to shSCR, shSIK1, shSIK2, or shSIK3. […] FIG. 5C, Inverse correlation between SIK2 knockdown with CYP19a1 expression in rat granulosa cells.
(§1) Cyp19a1 mRNA levels were quantified 48 hours later and expressed as relative levels to Rp119. Different letters represent significant differences (mean±SEM, n=5, one-way ANOVA followed by Tukey, p<0.05). FIG. 8B, Immature 23-day-old female mice were injected i.p. with YKL or vehicle (PBS). Two hours later, animals were treated with PMSG or PMSG plus YKL. The expression of CYP19a1, CYP11a1, and STARD1 was quantified 48 hours later. *p<0.05, t-test, n=7.
Rat Granulosa Cells. Rat granulosa cells were isolated from immature rats treated with estradiol for three days. Cells were cultured and treated as described for human granulosa cells. Rat experiments were approved by the Biologic Resources Laboratory (BRL) of the University of Illinois at Chicago.
(§2) mRNA Quantification. Total RNA was isolated at the end of each experiment using TRIzol™ reagent (Invitrogen) according to the manufacturer's protocol. The isolated RNA was reverse-transcribed using anchored oligo-dT primers (IDT, Coralville, Iowa) and Moloney Murine Leukemia Virus reverse transcriptase (Invitrogen) at 37° C. for 1 hour. The resulting cDNA was diluted with water to a final volume of 100 μl and 5 μl of diluted cDNA was used for each qPCR reaction. Gene expression is reported relative to ribosomal protein L19 mRNA (Rp119).

Mouse granulosa cells = experiment: Estradiol production by granulosa cells (ELISA); assay type: cell-based; settings: FSH plus inhibitor, 48 hours
Procedure: Estradiol was determined by ELISA.
Estradiol Measurement. Cell culture medium used for steroid determinations by ELISA (DRG Instruments; RRID: AB_2756386)) following manufacturer's instructions.

[1] = system: primary human granulosa cells; experiment: mRNA expression of FSH target genes in primary human granulosa cells; assay type: cell-based
Source text: Different letters represent significant differences (mean±SEM, N≥7, one-way ANOVA followed by Tukey, p<0.05).
Human Granulosa Cells. Human cells were collected from the follicular aspirates of women undergoing in vitro fertilization treatment at the University of Illinois at Chicago Fertility Center, under Institute Review Board approval. Informed consents were obtained from all women. In a subset of patients, additional information was collected to compare the effect of SIK inhibition in patients with different etiologies. Cells were transported immediately to the laboratory where they were dispersed by hyaluronidase digestion (8 IU/μl) and then centrifuged at 500×g for 5 minutes. Cells were incubated at room temperature in red blood cell lysis buffer for 2 minutes to eliminate contaminating erythrocytes. The cells were again centrifuged at 500×g for 5 minutes and suspended in 0.5 ml of serum-free DMEM/F12-0.25% BSA medium containing antibiotics. To investigate mRNA expression, cells were plated at a density of 30000 cells/well in 24-well plates coated with reconstituted basement membrane sold under the tradename Matrigel® (DB Biosciences). To investigate protein expression, cells were plated at a density of 200000 cells/well in 6-well plates coated with reconstituted basement membrane sold under the tradename Matrigel® (DB Biosciences). […] Each data point reflects a result obtained from individual patients. Cells from each patient were cultured separately.
as §2

human granulosa cells = experiment: CYP19A1 protein (western blot) in granulosa cells of IVF patients with different etiologies; assay type: cell-based; settings: patient with anovulation, HG alone or in the presence of FSH
Source text: Primary granulosa cells were obtained from patients with normal ovarian function (left panel) or patients diagnosed with polycystic ovarian syndrome or anovulation (right panel). […] The intensity of the CYP19a1 and BACT bands was quantified, and the data expressed as a ratio between aromatase and BACT. Different letters represent significant differences, one-way ANOVA followed by Tukey test, p<0.05, (n=5).
Human Granulosa Cells. Human cells were collected from the follicular aspirates of women undergoing in vitro fertilization treatment at the University of Illinois at Chicago Fertility Center, under Institute Review Board approval. Informed consents were obtained from all women. […] Cells were transported immediately to the laboratory where they were dispersed by hyaluronidase digestion (8 IU/μl) and then centrifuged at 500×g for 5 minutes. Cells were incubated at room temperature in red blood cell lysis buffer for 2 minutes to eliminate contaminating erythrocytes. The cells were again centrifuged at 500×g for 5 minutes and suspended in 0.5 ml of serum-free DMEM/F12-0.25% BSA medium containing antibiotics. […] To investigate protein expression, cells were plated at a density of 200000 cells/well in 6-well plates coated with reconstituted basement membrane sold under the tradename Matrigel® (DB Biosciences). […] Each data point reflects a result obtained from individual patients. […]

granulosa cells = experiment: In vivo treatment of immature mice with SIK inhibitor before PMSG, granulosa cell mRNA; settings: immature female mice, 10 mg/kg i.p. 2 h before and with PMSG, 48 hours
Procedure: as §1
In vivo Treatment with SIK Inhibitors. […] Controls were injected with 4 IU PMSG alone. granulosa cells were collected 48 hours after PMSG.
as §2

SIK = settings: in vivo; cited from earlier work

SMILES	FSH-stimulation of aromatase (Cyp19a1 mRNA) (rat granulosa cells)	Cyp19a1 mRNA levels, inhibitor alone (rat granulosa cells; absence of FSH, HG at 1 or 3 μM)	Stimulation of estradiol production by FSH (Mouse granulosa cells)	IGF2 mRNA expression, FSH plus inhibitor vs FSH alone ([1]; 48 hours)	IGF2 mRNA levels, inhibitor alone vs controls ([1]; absence of FSH)	CYP11A1 mRNA levels, inhibitor alone ([1]; no FSH)	STARD1 mRNA levels, inhibitor alone ([1]; no FSH)	CYP19A1 levels (human granulosa cells)	CYP19A1 mRNA levels, increase vs FSH only ([1]; FSH plus inhibitor, n=16 patients, P<0.0001) [fold]	CYP19A1 mRNA levels, inhibitor alone ([1]; no FSH)	Cyp11a1 mRNA induction by PMSG (granulosa cells)	Stimulatory effect of PMSG on Cyp19a1 mRNA (granulosa cells)	Stimulatory effect of PMSG on Stard1 mRNA (granulosa cells)	Phosphorylation of a known SIK substrate (SIK)
COc1ccc(N(C(=O)Nc2c(C)cccc2C)c2cc(Nc3ccc(N4CCN(C)CC4)cc3)ncn2)c(OC)c1 [HG-9-91-01]	potentiated FSH-stimulation of aromatase in a concentration-dependent manner	increased Cyp19a1 mRNA levels	potentiated the stimulation of estradiol production by FSH in a dose-dependent manner	tended to be higher	increased IGF2 mRNA levels significantly	enough to increase STARD1 and CYP11A1 mRNA levels	enough to increase STARD1 and CYP11A1 mRNA levels	stimulated CYP19A1 strongly						
O=C(NCCCNc1nc(Nc2cccc(CN3CCOCC3)c2)ncc1C1CC1)C1CCC1 [MRT67307]	Comparable findings		potentiated the stimulation of estradiol production by FSH in a dose-dependent manner						3	did not affect CYP19A1 mRNA levels				
COc1ccc(N2C(=O)N(c3c(C)cccc3Cl)Cc3cnc(Nc4ccc(C5CCN(C)CC5)cc4OC)nc32)nc1 [YKL-05-099]	enhances the stimulatory effect of FSH on Cyp19a1 mRNA expression in a concentration-dependent manner										only a trend to increase Cyp11a1 mRNA induction	enhanced the stimulatory effect of PMSG on Cyp19a1 and Stard1 significantly	enhanced the stimulatory effect of PMSG on Cyp19a1 and Stard1 significantly	reduces phosphorylation of a known SIK substrate
